From patent US7563899B2, “(S)-N-methylnaltrexone” (Progenics Pharmaceuticals, Inc., priority 2005, dated 2009)
Where a name gives a salt, the structure may show the parent alone.

Target: T1, human μ (mu, MOP) receptor (Homo sapiens, UniProt P35372)
T1 construct: expressed in transfected cells; host or cells: CHO cells
Assay: cAMP assay in CHO cells expressing human mu receptor, agonist assay
Format: cell-based

T1 sequence (P35372 whole entry): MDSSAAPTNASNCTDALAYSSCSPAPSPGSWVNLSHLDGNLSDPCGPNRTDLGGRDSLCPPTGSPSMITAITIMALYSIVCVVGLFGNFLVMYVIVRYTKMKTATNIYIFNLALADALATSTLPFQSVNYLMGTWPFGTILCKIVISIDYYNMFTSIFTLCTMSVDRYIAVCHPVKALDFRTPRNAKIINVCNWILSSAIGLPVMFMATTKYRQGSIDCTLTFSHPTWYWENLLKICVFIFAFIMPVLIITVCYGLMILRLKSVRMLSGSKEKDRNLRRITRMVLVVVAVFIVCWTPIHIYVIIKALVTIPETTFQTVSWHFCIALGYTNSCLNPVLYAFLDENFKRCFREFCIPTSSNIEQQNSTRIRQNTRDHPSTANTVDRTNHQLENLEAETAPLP

SMILES: C[N@@+]1(CC2CC2)CC[C@]23c4c5ccc(O)c4OC2C(=O)CCC3(O)C1C5 (stereo partly drawn) [S-MNTX, (S)-N-(cyclopropylmethyl)-noroxymorphone methyl salt]
- EC50 (CHO cells, human recombinant mu receptor, 10 uM forskolin, 100 uM IBMX, read-out: EC50 (agonist response, inhibition of forskolin-induced cAMP)): 600 nM
- nature of the agonist response (cAMP agonist assay): complete (not partial)
- cAMP agonist assay value (Table IX.1) (log{M} conc −4.0): 3
- cAMP agonist assay value (Table IX.1) (log{M} conc −4.5): −3
- cAMP agonist assay value (Table IX.1) (log{M} conc −5.0): 4
- cAMP agonist assay value (Table IX.1) (log{M} conc −5.5): 11
- cAMP agonist assay value (Table IX.1) (log{M} conc −6.0): 32
- cAMP agonist assay value (Table IX.1) (log{M} conc −6.5): 66
- cAMP agonist assay value (Table IX.1) (log{M} conc −7.0): 70
- cAMP agonist assay value (Table IX.1) (log{M} conc −7.5): 79
- cAMP agonist assay value (Table IX.1) (log{M} conc −8.0): 104
- cAMP agonist assay value (Table IX.1) (log{M} conc −9.0): 86
